Experiment [1] concerns BLM-induced scleroderma model mice. Put plainly: Study on fibrosis in BLM-induced scleroderma model mice (dermal thickness, collagen, α-SMA-positive fibroblasts, skin mRNA). It counts as in vivo, C57BL/6 mice. The procedure:
To the skin of the back of 8-week-old C57BL/6 mice (wild type), 1 mg/ml bleomycin (BLM) solution prepared with phosphate buffered saline (PBS) was intracutaneously injected at a dose of 300 μg every day for four weeks to prepare BLM-induced scleroderma model mice. A control group was provided by subcutaneous injection of the same amount of PBS. At the same time, monoammonium glycyrrhizinate (Cokey Co., Ltd.) dissolved in PBS was intraperitoneally administered at a dose of 30 mg/kg every day for four weeks. A control group was provided by intraperitoneal administration of the same amount of PBS. Using a skin biopsy punch with a diameter of 6 mm, the skin tissue at the injection site was collected, and subjected to Hematoxylin & Eosin staining to measure the dermal thickness. Further, a skin sample collected by the same method was subjected to quantification of the collagen content using a QuickZyme Total Collagen Assay kit (QuickZyme BioSciences B.V., Netherlands).
Paraffin sections were prepared using the skin of the back at the injection site of each BLM-induced scleroderma model mouse, and reacted with an anti-α-smooth muscle actin (α-SMA) antibody (Sigma-Aldrich, St. Louis, Mo., USA) according to the manufacturer's instruction provided for the VEVTOR M.O.M Immunodetection Kit (Vector laboratories, Burlingame, Calif., USA), followed by coloring with DAB (0.2 mg/ml, DOJINDO LABORATORIES, Kumamoto, JAPAN). For each mouse skin sample, three photographs of the superficial dermal layer were randomly taken for ×400 viewing areas, and the numbers of spindle-shaped cells positive for α-SMA were counted. Their average was regarded as the number of α-SMA-positive fibroblasts in the mouse. Comparison was made between the glycyrrhizic acid group and the control group.
Further, RNA was extracted from the skin of the back at the injection site of each BLM-induced scleroderma model mouse using an RNeasy min kit (Qiagen Valencia, Calif., USA), and then reverse-transcribed into cDNA using iScript cDNA Synthesis Kits (Bio-Rad, Hercules, Calif., USA). Measurement by quantitative real-time PCR was carried out using a SYBR Green PCR Master Mix (Life technologies) with ABI prism 7000 (Life technologies). The measurement was carried out in triplicate for each sample to calculate the average value. As a reference gene, Gapdh was used. The relative expression level of mRNA of the subject gene was calculated by the ^ΔΔCt method. Primers having the following sequences were used.

Experiment [2] has the same test system. In words: Study on inflammation and immune abnormality in BLM-induced scleroderma model mice (FACS of CD4-positive cells, skin cytokine mRNA). In kind it is in vivo. The procedure:
BLM-induced scleroderma model mice were prepared by the same treatment as in Example 1 except that the bleomycin administration treatment was carried out for only one week. On the last day of the administration, bilateral inguinal lymph nodes and the spleen were removed from each mouse. After mashing the lymph nodes, lymphocytes were separated therefrom. To blood cells removed from the spleen, RBC lysis buffer (0.0017 M Trizma, Sigma-Aldrich, 0.1 M NH4Cl 2.675 g, Sigma-Aldrich) was added to separate lymphocytes. The lymphocytes were subjected to staining of surface antigens using an anti-CD3 antibody (17A2), anti-CD4 antibody (RM4-5), and anti-CD8a antibody (53-6.7). Further, stimulation was carried out with 10 ng/ml phorbol myristate acetate (Sigma-Aldrich), 1 μg/ml ionomycin (Sigma-Aldrich), and 1 μg/ml brefeldin A ([…]; BD PharMingen) for four hours, and staining of intracellular antigens was carried out using an anti-interleukin (IL)-4 antibody (11B11), anti-IL17A antibody (TC11-18HC0.1), and anti-interferon (IFN)-γ antibody (XMG1.2) (all antibodies were manufactured by BioLegend, San Diego, Calif., USA). The stained lymphocytes were analyzed using a FACS Verseflow cytometer (BD Biosciences).
Further, from the skin of the back at the injection site of each BLM-induced scleroderma model mouse, RNA was extracted by the same method as in Example 1, and the mRNA levels of IL4, IL1 b, and arginase were measured. Primers having the following sequences were used.

For experiment [3] the test system is unchanged. Put plainly: Endothelial-to-mesenchymal transition (Endo-MT) in skin of BLM-induced scleroderma model mice (VE-cadherin/FSP1 immunostaining, Snail1 mRNA). In kind it is in vivo. The protocol:
Paraffin sections were prepared using skin samples of the injection site of BLM-induced scleroderma model mice prepared under the same conditions as in Example 1. A rabbit anti-VE-cadherin antibody (Santa Cruz Biotechnolog) and a goat anti-fibroblast-specific protein 1 (FSP1) antibody (abcam, Cambridge, UK) as primary antibodies, and an FITC-conjugated donkey anti-rabbit IgG antibody (Santa Cruz Biotechnolog) and an Alexa Fluor donkey 555 anti-goat IgG antibody (Invitrogen, Carlsbad, Calif., USA) as secondary antibodies, were reacted with the sections, and nuclear staining was performed using Vectashield with DAPI (Vector Laboratories, Burlingame, Calif., USA). Observation was carried out using Bio Zero BZ-8000 (Keyence, Osaka, Japan) at wavelengths of 495 nm (green), 565 nm (red), and 400 nm (blue). The number of cells stained with both FSP1 and VE-Cadherin, which are observed as green color and red color, respectively (cells that had undergone Endo-MT), was compared. Further, from the skin samples, RNA was extracted by the same method as in Example 1, and the mRNA level of Snail1 was measured. Primers having the following sequences were used.

Experiment [4] has as its system mice deficient for vascular endothelial cell-specific Fli1 (Fli1 flox/flox; Tie2-Cre). Put plainly: Extravasation of Evans blue dye in vascular endothelial cell-specific Fli1 deficient mice. It counts as in vivo. To be noted: vascular endothelial cell-specific Fli1 knockout mice; intraperitoneal administration, two weeks; absorbance at 620 nm. The protocol: Subsequently, under the same conditions as in Example 1, monoammonium glycyrrhizinate or PBS was intraperitoneally administered to 10-week-old mice deficient for vascular endothelial cell-specific Fli1 (Fli1 flox/flox; Tie2-Cre: see American Journal of Pathology, April 2010 Volume 176, Issue 4, p 1983-1998), which are model mice for angiopathy in scleroderma, or to control mice (Fli1 flox/flox). Two weeks later, 200 μl of Evans blue dye (0.5% in PBS) was administered into the tail vein of each mouse, and the mouse was euthanized 30 minutes thereafter, followed by incision of the skin from the middle of the abdomen. Cutaneous blood vessels were macroscopically observed from the dermal side to evaluate the degree of leakage of the dye. Further, for measurement of extravasation of Evans blue, skin was collected from three positions using a skin biopsy punch with a diameter of 4 mm, and then allowed to dissolve in formamide at 37° C. for 24 hours, followed by measurement of the absorbance at a wavelength of 620 nm using a microplate reader.

Setting [5] is: skin of BLM-induced scleroderma model mice, quantitative real-time PCR.
Setting [6] is: lymph nodes or spleen, BLM for one week, FACS.
[7] abbreviates: skin tissue of BLM-induced scleroderma model mice.

For `CC1(C)[C@@H](O[C@H]2O[C@H](C(=O)O)[C@@H](O)[C@H](O)[C@H]2O[C@@H]2O[C@H](C(=O)O)[C@@H](O)[C@H](O)[C@H]2O)CC[C@]2(C)[C@H]3C(=O)C=C4[C@@H]5C[C@@](C)(C(=O)O)CC[C@]5(C)CC[C@@]4(C)[C@]3(C)CC[C@@H]12` [glycyrrhizic acid], the “number of myofibroblasts (α-SMA-positive fibroblasts) in the skin” value in experiment [1] (BLM-induced scleroderma model mice, 30 mg/kg i.p. daily, four weeks) is reported as “significant decrease”. Besides, the “dermal thickness (thickening of the dermis)” value in experiment [1] (BLM-induced scleroderma model mice, 30 mg/kg intraperitoneally every day for four weeks) was “reduced”. In addition, the “amount of collagen fibers” value in experiment [1] (BLM-induced scleroderma model mice, skin at injection site, 30 mg/kg i.p. daily, four weeks) is “decreased”. Besides, in experiment [1] (control mice not subjected to BLM induction, 30 mg/kg i.p. daily, four weeks), the “amount of collagen fibers” value is recorded as “did not cause any change”. Further, the dermal thickness result in experiment [1] (control mice not subjected to BLM induction, 30 mg/kg intraperitoneally every day for four weeks) is listed as “did not cause any change”. Moreover, in experiment [1] (setting [5]), the “mRNA of Col1a1” value is reported as “significant decreases”, the “mRNA of Col1a2” value is listed as “significant decreases”, the “mRNA of Col3a1” value is reported as “significant decreases” and the “mRNA of Mmp13 (collagenase)” value was “significant increase”. Moreover, the “mRNA of thrombospondin (Thbs1)” value in experiment [1] (setting [5]) is listed as “decrease”. Also, in experiment [2] (setting [6]), the “ratio of IFN-γ-positive cells among CD4-positive cells” value is “did not cause any change” and the “ratio of IL17A-positive cells among CD4-positive cells” value is “did not cause any change”. In addition, the “ratio of IL4-positive cells among CD4-positive T cells” value in experiment [2] (lymph nodes, BLM for one week, FACS) is reported as “significant decreases”. In experiment [2] (setting [7]), the “mRNA of arginase (marker for M2 macrophages)” value was “decreased”, the “mRNA of interleukin 1 b” value was “decreased” and the “mRNA of interleukin 4” value is listed as “decreased”. Besides, the “ratio of IL4-positive cells among CD4-positive T cells” value in experiment [2] (spleen, BLM for one week, FACS) is “significant decreases”. The “mRNA level of Snail1” value in experiment [3] is “significantly decreased”. In addition, in experiment [3] (immunostaining), the “increase in cells that have undergone Endo-MT (stained for both VE-cadherin and FSP1)” value was “suppressed”. For the same compound, in experiment [4], the “extravasation of Evans blue” value was “significantly decreased”.

The record behind these values is patent publication US20180303859A1, “Agent For Preventing And/Or Treating Scleroderma” (THE UNIVERSITY OF TOKYO, priority 2015, published 2018).
